Columns and labels:
[1] = test system: strain of German cockroaches that is resistant to multiple insecticides; assay: Topical application test on male adult German cockroach, multiple-insecticide-resistant strain; assay type: in vivo; settings: for LD50 Resistant: 1 μL acetone solution applied to ventral surface of thorax of male adult, mortality after 4 days, Probit method, strain with L993F sodium channel and A302S GABAergic chloride channel mutations and enhanced metabolic detoxification; for Resistance ratio: calculated by formula (2) from the LD50 values of the resistant and susceptible strains; for Control of harmful arthropods showing high resistance to permethrin, deltamethrin, fipronil, indoxacarb and fluxametamide: conclusion drawn from Table 1
Description: (§1) An acetone solution comprising a prescribed concentration of each of permethrin, deltamethrin, fipronil, indoxacarb, fluxametamide, broflanilide, nicofluprole, cyproflanilide, or isocycloseram was prepared, and 1 μL of the acetone solution was applied to a ventral surface of thorax of a male adult of German cockroach. Two strains of German cockroaches, i.e., the strain of German cockroaches that is susceptible to insecticides and the strain of German cockroaches that is resistant to multiple insecticides, were used. The strain of German cockroaches that is resistant to multiple insecticides is highly resistant to pyrethroid compounds, phenylpyrazole compounds, and oxadiazine compounds. As the resistance mechanism, the strain has the L993F mutation of voltage-dependent sodium channel resulting in pyrethroid resistance, the A302S mutation of GABAergic chloride ion channel resulting in dieldrin resistance, and enhanced metabolic detoxification activities. The application concentrations were three or more concentrations resulting in 0 to 100% of mortality of insects (comprising one or more concentrations resulting in less than 50% mortality of insects, and one or more concentrations resulting in more than 50% mortality of insects), and the number of test insects per concentration was ten in duplicate. After 4 days, the number of dead German cockroach(es) was investigated, and LD50 value was calculated by the Probit method. The mortalities of insects of 0% and 100% were corrected by the method of Miller and Tainter represented by the following formula (1), and corrected mortalities of insects were used when LD50 values were calculated. The resistance ratio was calculated according to the following formula (2) by using the obtained LD50 values. In this test, a dead insect refers to an insect in which the action was completely stopped.

[2] = test system: strain of German cockroaches that is susceptible to insecticides; assay: Topical application test on male adult German cockroach, insecticide-susceptible strain; assay type: in vivo; settings: 1 μL acetone solution applied to ventral surface of thorax of male adult; mortality after 4 days; Probit method
Description: as §1

Structure (SMILES)	LD50 Resistant [1] [μg/insect]	Resistance ratio [1]	LD50 Susceptible [2] [μg/insect]	Control of harmful arthropods showing high resistance to permethrin, deltamethrin, fipronil, indoxacarb and fluxametamide [1]
CC1(C)[C@H](C(=O)O[C@H](C#N)c2cccc(Oc3ccccc3)c2)[C@@H]1C=C(Br)Br [Deltamethrin, deltamethrin]	0.68	43	0.016	–
CN(C(=O)c1cc(-c2cnn(-c3c(Cl)cc(C(F)(C(F)(F)F)C(F)(F)F)cc3Cl)c2)cnc1Cl)C1CC1 [Nicofluprole, nicofluprole]	0.0065	2.4	0.0027	can effectively control
CC1(C)C(C=C(Cl)Cl)C1C(=O)OCc1cccc(Oc2ccccc2)c1 (stereo not shown) [Permethrin, permethrin]	>50	>180	0.28	–
N#Cc1nn(-c2c(Cl)cc(C(F)(F)F)cc2Cl)c(N)c1[S+]([O-])C(F)(F)F (stereo not shown) [Fipronil, fipronil]	0.14	41	0.0034	–
COC(=O)N(C(=O)N1CO[C@@]2(C(=O)OC)Cc3cc(Cl)ccc3C2=N1)c1ccc(OC(F)(F)F)cc1 [Indoxacarb, indoxacarb]	>50	>200	0.25	–
CCN1OCC(NC(=O)c2ccc(C3=NOC(c4cc(Cl)c(F)c(Cl)c4)(C(F)(F)F)C3)cc2C)C1=O (stereo not shown) [Isocycloseram, isocycloseram]	0.10	1.7	0.059	can effectively control
CON=CNC(=O)c1ccc(C2=NOC(c3cc(Cl)cc(Cl)c3)(C(F)(F)F)C2)cc1C (stereo not shown) [Fluxametamide, fluxametamide]	2.7	46	0.059	–
CN(C(=O)c1ccccc1)c1cccc(C(=O)Nc2c(Br)cc(C(F)(C(F)(F)F)C(F)(F)F)cc2C(F)(F)F)c1F [Broflanilide, broflanilide]	0.021	2.3	0.0093	can effectively control
O=C(Nc1c(Br)cc(C(F)(C(F)(F)F)C(F)(F)F)cc1C(F)(F)F)c1cccc(N(CC2CC2)C(=O)c2ccc(F)cc2)c1F [Cyproflanilide, cyproflanilide]	0.035	1.2	0.028	can effectively control

— patent US20250064061A1, “METHOD FOR CONTROLLING NOXIOUS ARTHROPODS” (SUMITOMO CHEMICAL COMPANY, LIMITED, priority 2021, published 2025)
